# Laboratory results reported in patent US20030139616A1, “Method of searching for arteriosclerosis inhibitors and shrinkers” (priority 2000, published 2003).
# Assays:
# [1] = system: foam mouse macrophages; test: Defoaming-promoting activity (cholesterol efflux into medium); type: cell-based; settings: for Amount of cholesterol transferred (control group = 100%) Mean: method of Example 4; for action on transfer of cholesterol: result in words, summary of Tables 3 and 7
# Method: The activity of the test compound on defoaming was measured by treating the foam mouse macrophages prepared in Example 1, with RPMI 1640-25 mM HEPES medium (pH 7) containing the test compound for 24 hours, followed by adding 20% fetal bovine serum (JRH Ltd.), and determining the radioactivity released into the medium after further culture for 24 hours. The defoaming-promoting activity of a group treated with the compound was calculated as a ratio (%) of the radioactivity corrected by a blank value to that of a control group. The blank value used was the radioactivity in the absence of the test compound and 20% fetal bovine serum. The defoaming-promoting activities of the control group and the group treated with the compound were corrected by the amount of cell protein measured by the BCA assay kit from Pierce Ltd. after the cells were solubilized with 0.1 N NaOH/0.1% SDS solution.
# The promoting action of Compound A on defoaming was measured by using the method described in Example 4.
# [2] = system: foamed macrophages; test: Intracellular cholesteryl ester content by enzyme method; type: cell-based, mouse; settings: for Content of intracellular cholesteryl esters (control group = 100%) Mean: method of Example 5 (enzyme method); for action on reduction of the cholesteryl ester content: result in words, summary of Tables 4 and 8
# Method: The mouse peritoneal macrophages prepared in Example 1 were cultured for 24 hours in an RPMI 1640-25 mM HEPES medium (pH 7) containing β-VLDL (150 μg/ml) and a conjugate of 0.2 mM oleic acid/0/2% bovine serum albumin to obtain foam cells in which cholesteryl esters were accumulated. These foamed macrophages were treated with an RPMI 1640-25 mM HEPES medium (pH 7) containing the test compound for 24 hours, and then the whole lipid was extracted. The lipid thus extracted was dissolved in isopropanol and measured for the amounts of the whole cholesterol and free cholesterol by the enzyme method (E-Test Wako, Wako Ltd.), and, from the difference therebetween, the amount of cholesteryl esters was calculated. The amounts of cell protein in a control group and a group treated with the compound were measured with a BCA assay kit from Pierce Ltd. after the cells were solubilized with 0.1 N NaOH/0.1% SDS solution, and assuming that the amount of cholesteryl esters (μg/mg cell protein) in the cells in the control group was 100%, the amount of cholesteryl esters (%) in the group treated with the compound was calculated.
# The action of Compound A on reduction of the content of intracellular cholesteryl esters was measured by using the method described in Example 5.
# [3] = system: Mouse peritoneal macrophages; test: Inhibitory action on synthesis of intracellular cholesteryl esters; type: cell-based; settings: for Content of intracellular cholesteryl esters (control group = 100%) TLC method Mean / Content of intracellular cholesteryl esters (control group = 100%) Methanol method Mean: 24 hours, 25-hydroxycholesterol
# Method: Mouse peritoneal macrophages prepared in the method described in Example 1 were cultured for 24 hours in an RPMI 1640-25 mM HEPES medium (pH 7) containing 1% fetal bovine serum and [1,2,6,7-^3H]-cholesterol (37 Kbq/ml, NEN Ltd.). The macrophages were labeled with ^3H-cholesterol and then cultured for 24 hours in an RPMI 1640-25 mM HEPES medium (pH 7) containing 2-[6-chloro-4-(2-methylphenyl)-2-oxo-2H-chromene-3-yl]-N-(2,6-dimethoxyphenyl) acetamide (referred to hereinafter as Compound A), 25-hydroxycholesterol (5 μg/ml, Sigma) and 0.2 mM oleic acid/0.2% bovine serum albumin, and the content of synthesized intracellular cholesteryl esters was quantified by the TLC fractionation method or the aqueous methanol extraction method (hereinafter also referred to as the methanol method). The measurement by the TLC fractionation method was conducted by extracting the whole intracellular lipid with a hexane-isopropanol mixture (3:2, v/v) and then fractionating the lipid in TLC under the same conditions as in Example 1 to quantify the intracellular cholesteryl esters. The measurement by the aqueous methanol extraction method was conducted by treating the cells with 80% methanol for 10 minutes, then solubilizing the cells with 0.1 N NaOH/0.1% SDS solution, and measuring their radioactivity. Each value of radioactivity was corrected by the amount of cell proteins measured with a BCA assay kit (Pierce Ltd.) after the cells were solubilized with 0.1 N NaOH/0.1% SDS solution, and assuming that the radioactivity (dpm/mg cell protein) of the control group in the absence of the test compound was 100%, the content of intracellular cholesteryl esters (%) in the group treated with Compound A was calculated.
# [4] = system: Foam cells derived from mouse peritoneal macrophages; test: Promoting action on decomposition of intracellular cholesteryl esters; type: cell-based; settings: for Content of intracellular cholesteryl esters (control group = 100%) TLC method Mean / Content of intracellular cholesteryl esters (control group = 100%) Methanol method Mean: 48 hours
# Method: Foam cells derived from mouse peritoneal macrophages, prepared in the method described in Example 1, were cultured for 48 hours in an RPMI 1640-25 mM HEPES medium (pH 7) containing Compound A, and a reduction in the intracellular cholesteryl ester content was quantified by a TLC fractionation method or an aqueous methanol extraction method. The measurement by the TLC fractionation method was conducted by extracting the whole intracellular lipid with a hexane-isopropanol mixture (3:2, v/v) and then fractionating the lipid by TLC under the same conditions as in Example 1 to quantify the intracellular cholesteryl esters. The measurement by the aqueous methanol extraction method was conducted by treating the cells with 80% methanol for 10 minutes, then solubilizing the cells with 0.1 N NaOH/0.1% SDS solution, and measuring their radioactivity. Each value of radioactivity was corrected by the amount of cell proteins measured with a BCA assay kit (Pierce Ltd.) after the cells were solubilized with 0.1 N NaOH/0.1% SDS solution, and assuming that the radioactivity (dpm/mg cell protein) of the control group in the absence of the test compound was 100%, the content of intracellular cholesteryl esters (%) in the group treated with Compound A was calculated.
# [5] = system: foam macrophages; test: Measurement of regulatory activity on intracellular cholesteryl ester cycle (aqueous methanol extraction); type: cell-based, mouse
# Method: According to the method of Hakamada et al. (“Jikken Igaku (Experimental Medicine), Extra Issue”, vol. 14, No. 12, Circulation Study Protocol, pp. 49-52 (1996)), peritoneal macrophages were prepared from C57BL6J mice stimulated with thioglycolate, and then cultured for 24 hours in RPMI 1640-25 mM HEPES (pH 7) containing β-very low-density lipoprotein (β-VLDL, 150 μg cholesterol/ml) prepared according to the method of Ishii et al. (Arterioscler. Thromb., 12, 1139-1145, 1992), a conjugate of 0.2 mM oleic acid/0.2% bovine serum albumin, and [1,2,6,7-^3H]-cholesterol (NEN, 37 KBq/ml) to obtain foam cells in which cholesteryl esters were accumulated. […] A part of the extract was fractionated by the TLC method (Merck Silica Gel Plate No. 5582, developing solvent: petroleum ether/diethyl ether/acetic acid=9:1:0.1), free cholesterol and cholesteryl ester fractions were cut off, a liquid scintillator was added, and the radioactivity thereof was measured.
# In an RPMI 1640-HEPES medium (pH 7) containing the test compound, the foam macrophages prepared in Example 1 were cultured for 24 hours. The cells were extracted with 80% aqueous methanol for 10 minutes and then solubilized with 0.1 NaOH/0.1% SDS solution, a liquid scintillator was added to a portion thereof, and its radioactivity was measured. […]
structure (smiles),measurement,setting,value
"COc1cccc(OC)c1NC(=O)Cc1c(-c2ccccc2C)c2cc(Cl)ccc2oc1=O [Compound A, 2-[6-chloro-4-(2-methylphenyl)-2-oxo-2H-chromene-3-yl]-N-(2,6-dimethoxyphenyl) acetamide]",Amount of cholesterol transferred (control group = 100%) Mean,[1]; 0.01 mM,142%
same,Amount of cholesterol transferred (control group = 100%) Mean,[1]; 0.1 mM,191%
same,action on transfer of cholesterol,[1],strong action
same,Content of intracellular cholesteryl esters (control group = 100%) Mean,[2]; 0.01 mM,63%
same,Content of intracellular cholesteryl esters (control group = 100%) Mean,[2]; 0.1 mM,48%
same,action on reduction of the cholesteryl ester content,[2],strong action
same,Content of intracellular cholesteryl esters (control group = 100%) TLC method Mean,[3]; 0.01 mM,44%
same,Content of intracellular cholesteryl esters (control group = 100%) Methanol method Mean,[3]; 0.01 mM,41%
same,Content of intracellular cholesteryl esters (control group = 100%) TLC method Mean,[3]; 0.03 mM,16%
same,Content of intracellular cholesteryl esters (control group = 100%) Methanol method Mean,[3]; 0.03 mM,19%
same,Content of intracellular cholesteryl esters (control group = 100%) TLC method Mean,[3]; 0.1 mM,5%
same,Content of intracellular cholesteryl esters (control group = 100%) Methanol method Mean,[3]; 0.1 mM,9%
same,inhibitory activity on synthesis of cholesteryl esters,"[3]; result in words, summary of Table 5",potent inhibitory activity
same,Content of intracellular cholesteryl esters (control group = 100%) TLC method Mean,[4]; 0.01 mM,71%
same,Content of intracellular cholesteryl esters (control group = 100%) Methanol method Mean,[4]; 0.01 mM,74%
same,Content of intracellular cholesteryl esters (control group = 100%) TLC method Mean,[4]; 0.1 mM,8%
same,Content of intracellular cholesteryl esters (control group = 100%) Methanol method Mean,[4]; 0.1 mM,14%
same,promoting activity on degradation of cholesteryl esters,"[4]; result in words, summary of Table 6",strong promoting activity
"CCCC(=O)Nc1ncnc2c1ncn2[C@@H]1O[C@@H]2COP(=O)(O)O[C@H]2[C@H]1OC(=O)CCC [dbc-AMP, Dibutyryl cyclic AMP, reference compound]",Cholesteryl ester content (%),"[5]; 100 μM, 24 hours, 80% aqueous methanol extraction, control = 100%",60 ± 12 p < 0.01 %
same,cholesteryl ester cycle-regulating action,"[5]; result in words, summary of Table 2",potent cholesteryl ester-hydrolytic activity
same,Amount of cholesterol efflux (%),"[1]; 100 μM, 24 hours then 20% fetal bovine serum 24 hours, control = 100%",160 ± 15 p < 0.01 %
same,action on transfer of cholesterol,[1],exerts an action
same,Cholesteryl ester content (%),"[2]; 100 μM, 24 hours, enzyme method, control = 100%",78 ± 4 p < 0.01 %
same,action on reduction of the cholesteryl ester content,[2],exerts an action
